Experimental data from patent publication US20140288052A1, “SUBSTITUTED BICYCLIC AZA-HETEROCYCLES AND ANALOGUES AS SIRTUIN MODULATORS” (GlaxoSmithKline, LLC, priority 2011, published 2014).

Columns and labels:
SIRT1 [1] = target: T1, SIRT1 (Homo sapiens, UniProt Q96EB6); assay: TAMRA based mass spectrometry assay of SIRT1 deacetylase activation; format: biochemical; settings: TAMRA peptide substrate; for TAMRA EC1.5 (μM): concentration that results in 150% activation of SIRT1; for TAMRA % Fold Act: percent maximum fold activation relative to control (100%)
T1 sequence (Q96EB6 1-747): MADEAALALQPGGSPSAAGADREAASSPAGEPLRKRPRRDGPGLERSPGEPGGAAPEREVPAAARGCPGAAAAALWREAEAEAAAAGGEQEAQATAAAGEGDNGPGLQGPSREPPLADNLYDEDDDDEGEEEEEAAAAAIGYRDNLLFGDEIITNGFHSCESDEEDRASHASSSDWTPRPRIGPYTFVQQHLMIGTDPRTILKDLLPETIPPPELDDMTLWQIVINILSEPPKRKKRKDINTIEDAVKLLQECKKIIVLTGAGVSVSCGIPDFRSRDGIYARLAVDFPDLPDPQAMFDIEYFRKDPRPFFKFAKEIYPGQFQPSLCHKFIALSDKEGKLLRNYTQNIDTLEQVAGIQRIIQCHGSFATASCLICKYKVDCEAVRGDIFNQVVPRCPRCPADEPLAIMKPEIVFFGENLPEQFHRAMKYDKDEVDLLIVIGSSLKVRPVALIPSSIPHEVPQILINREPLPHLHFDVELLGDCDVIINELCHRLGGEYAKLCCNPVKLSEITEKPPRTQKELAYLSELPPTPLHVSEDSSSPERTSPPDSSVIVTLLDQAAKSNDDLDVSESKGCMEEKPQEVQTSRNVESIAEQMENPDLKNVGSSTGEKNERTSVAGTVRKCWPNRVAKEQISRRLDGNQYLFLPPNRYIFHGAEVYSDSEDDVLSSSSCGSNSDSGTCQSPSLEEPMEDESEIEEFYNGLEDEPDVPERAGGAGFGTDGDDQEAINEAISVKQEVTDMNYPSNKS
Source text: (§1) Mass spectrometry based assays were used to identify modulators of SIRT1 activity. The TAMRA based assay utilized a peptide having 20 amino acid residues as follows: Ac-EE-K(biotin)-GQSTSSHSK(Ac)NleSTEG-K(5TMR)-EE-NH2 (SEQ ID NO: 1), wherein K(Ac) is an acetylated lysine residue and Nle is a norleucine. The peptide was labeled with the fluorophore 5TMR (excitation 540 nm/emission 580 nm) at the C-terminus. The sequence of the peptide substrate was based on p53 with several modifications. In addition, the methionine residue naturally present in the sequence was replaced with the norleucine because the methionine may be susceptible to oxidation during synthesis and purification. The Trp based assay utilized a peptide having an amino acid residues as follows: Ac-R-H-K-K(Ac)-W-NH2 (SEQ ID NO: 2).
The TAMRA based mass spectrometry assay was conducted as follows: 0.5 μM peptide substrate and 120 μM βNAD^+ was incubated with 10 nM SIRT1 for 25 minutes at 25° C. in a reaction buffer (50 mM Tris-acetate pH 8, 137 mM NaCl, 2.7 mM KCl, 1 mM MgCl2, 5 mM DTT, 0.05% BSA). The SIRT1 protein was obtained by cloning the SirT1 gene into a T7-promoter containing vector, which was then transformed and expressed in BL21(DE3) bacterial cells. Test compound was added at varying concentrations to this reaction mixture and the resulting reactions were monitored. After the 25 minute incubation with SIRT1, 10 μL of 10% formic acid was added to stop the reaction. The resulting reactions were sealed and frozen for later mass spec analysis. Determination of the amount of deacetylated substrate peptide formed (or, alternatively, the amount of O-acetyl-ADP-ribose (OAADPR) generated) by the sirtuin-mediated NAD-dependent deacetylation reaction allowed for the precise measurement of relative SIRT1 activity in the presence of varying concentrations of the test compound versus control reactions lacking the test compound.
(§2) A control for inhibition of sirtuin activity was conducted by adding 1 μL of 500 mM nicotinamide as a negative control at the start of the reaction (e.g., permits determination of maximum sirtuin inhibition). A control for activation of sirtuin activity was conducted using 10 nM of sirtuin protein, with 1 μL of DMSO in place of compound, to determine the amount of deacetylation of the substrate at a given time point within the linear range of the assay. This time point was the same as that used for test compounds and, within the linear range, the endpoint represents a change in velocity. For the above assay, SIRT1 protein was expressed and purified as follows. The SirT1 gene was cloned into a T7-promoter containing vector and transformed into BL21(DE3). The protein was expressed by induction with 1 mM IPTG as an N-terminal His-tag fusion protein at 18° C. overnight and harvested at 30,000×g. Cells were lysed with lysozyme in lysis buffer (50 mM Tris-HCl, 2 mM Tris[2-carboxyethyl] phosphine (TCEP), 10 μM ZnCl2, 200 mM NaCl) and further treated with sonication for 10 min for complete lysis. The protein was purified over a Ni-NTA column (Amersham) and fractions containing pure protein were pooled, concentrated and run over a sizing column (Sephadex S200 26/60 global). The peak containing soluble protein was collected and run on an Ion-exchange column (MonoQ). Gradient elution (200 mM-500 mM NaCl) yielded pure protein. This protein was concentrated and dialyzed against dialysis buffer (20 mM Tris-HCl, 2 mM TCEP) overnight. The protein was aliquoted and frozen at −80° C. until further use.
Sirtuin-modulating compounds of Formula (I) that activated SIRT1 were identified using the assay described above and are shown below in Table 1. The EC1.5 values represent the concentration of test compounds that result in 150% activation of SIRT1. The EC1.5 values for the activating compounds of Formula (I) are represented by A (EC1.5<1 μM), B (EC1.5 1−25 μM), C (EC1.5>25 μM). […]

SIRT1 [2] = target: T1, SIRT1; assay: Trp mass spectrometry assay of SIRT1 deacetylase activation; format: biochemical; settings: Trp peptide substrate; for TRP EC1.5 (μM): concentration that results in 150% activation of SIRT1; for TRP % Fold Act: percent maximum fold activation relative to control (100%)
Source text: as §1
The Trp mass spectrometry assay was conducted as follows. 0.5 μM peptide substrate and 120 μM βNAD^+ were incubated with 10 nM SIRT1 for 25 minutes at 25° C. in a reaction buffer (50 mM HEPES pH 7.5, […], 1 mM DTT, 0.05% BSA). The SIRT1 protein was obtained by cloning the SirT1 gene into a T7-promoter containing vector, which was then expressed in BL21(DE3) bacterial cells and purified as described in further detail below. Test compound was added at varying concentrations to this reaction mixture and the resulting reactions were monitored. After the 25 minute incubation with SIRT1, 10 μL of 10% formic acid was added to stop the reaction. The resulting reactions were sealed and frozen for later mass spec analysis. The relative SIRT1 activity was then determined by measuring the amount of O-acetyl-ADP-ribose (OAADPR) formed (or, alternatively, the amount of deacetylated Trp peptide generated) by the NAD-dependent sirtuin deacetylation reaction in the presence of varying concentrations of the test compound versus control reactions lacking the test compound. The degree to which the test agent activated deacetylation by SIRT1 was expressed as EC1.5 (i.e., the concentration of compound required to increase SIRT1 activity by 50% over the control lacking test compound), and Percent Maximum Activation (i.e., the maximum activity relative to control (100%) obtained for the test compound).
as §2
Sirtuin-modulating compounds of Formula (I) that activated SIRT1 were identified using the assay described above and are shown below in Table 1. […]

Structure (SMILES) | TAMRA EC1.5 (μM) (SIRT1 [1]) | TAMRA % Fold Act (SIRT1 [1]) | TRP EC1.5 (μM) (SIRT1 [2]) | TRP % Fold Act (SIRT1 [2])
O=C(Nc1ncccn1)c1ccnc2cc(-c3ccccc3C(F)(F)F)nn12 [Compound 100] | B (EC1.5 1−25 μM) | A (Fold activation≧350%) | B (EC1.5 1−25 μM) | B (Fold Activation<350%)
O=C(Nc1ccnc2cc(-c3ccccc3C(F)(F)F)nn12)c1ccncn1 [Compound 62] | B (EC1.5 1−25 μM) | B (Fold Activation<350%) | C (EC1.5>25 μM) | B (Fold Activation<350%)
O=C(Nc1nccs1)c1cc(N2CCOCC2)nn2cc(-c3ccccc3F)nc12 [Compound 37] | C (EC1.5>25 μM) | B (Fold Activation<350%) | C (EC1.5>25 μM) | B (Fold Activation<350%)
O=C(Nc1ccncc1)c1ccnc2cc(-c3ccccc3C(F)(F)F)nn12 [Compound 77] | B (EC1.5 1−25 μM) | A (Fold activation≧350%) | B (EC1.5 1−25 μM) | B (Fold Activation<350%)
O=C(Nc1ccnc2cc(-c3ccccc3C(F)(F)F)nn12)c1ccccn1 [Compound 59] | A (EC1.5<1 μM) | A (Fold activation≧350%) | B (EC1.5 1−25 μM) | B (Fold Activation<350%)
O=C(Nc1ccccn1)c1ccnc2cc(-c3ccccc3C(F)(F)F)nn12 [Compound 75] | B (EC1.5 1−25 μM) | A (Fold activation≧350%) | B (EC1.5 1−25 μM) | B (Fold Activation<350%)
O=C(Nc1ccnc2cc(-c3ccccc3C(F)(F)F)nn12)c1ncccc1F [Compound 113] | A (EC1.5<1 μM) | A (Fold activation≧350%) | B (EC1.5 1−25 μM) | B (Fold Activation<350%)
O=C(Nc1ccnc2cc(-c3ccccc3C(F)(F)F)nn12)c1cnccn1 [Compound 61] | A (EC1.5<1 μM) | A (Fold activation≧350%) | C (EC1.5>25 μM) | B (Fold Activation<350%)
O=C(Nc1ccnc2cc(-c3ccccc3C(F)(F)F)nn12)c1cnc(O)cn1 [Compound 117] | A (EC1.5<1 μM) | A (Fold activation≧350%) | C (EC1.5>25 μM) | B (Fold Activation<350%)
O=C(Nc1nccs1)c1ccnc2cc(-c3ccccc3C(F)(F)F)nn12 [Compound 79] | B (EC1.5 1−25 μM) | B (Fold Activation<350%) | A (EC1.5<1 μM) | B (Fold Activation<350%)
O=C(Nc1cccc(CN2CCOCC2)n1)c1ccnc2cc(-c3ccccc3C(F)(F)F)nn12 [Compound 83] | A (EC1.5<1 μM) | A (Fold activation≧350%) | B (EC1.5 1−25 μM) | B (Fold Activation<350%)
Cn1cnc(C(=O)Nc2ccnc3cc(-c4cccc(C(F)(F)F)c4)nn23)c1 [Compound 96] | B (EC1.5 1−25 μM) | B (Fold Activation<350%) | C (EC1.5>25 μM) | B (Fold Activation<350%)
O=C(Nc1ccnc2cc(-c3ccccc3C(F)(F)F)nn12)c1cccc(N2CCC2)n1 [Compound 64] | A (EC1.5<1 μM) | B (Fold Activation<350%) | C (EC1.5>25 μM) | B (Fold Activation<350%)
O=C(Nc1cccnc1)c1cc(N2CCOCC2)nn2cc(-c3cccc(F)c3)nc12 [Compound 28] | C (EC1.5>25 μM) | B (Fold Activation<350%) | C (EC1.5>25 μM) | B (Fold Activation<350%)
O=C(Nc1ccncc1)c1cc(N2CCOCC2)nn2cc(-c3ccccc3F)nc12 [Compound 41] | C (EC1.5>25 μM) | B (Fold Activation<350%) | C (EC1.5>25 μM) | B (Fold Activation<350%)
O=C(Nc1ccnc2cc(-c3cccc(C(F)(F)F)c3)nn12)c1nccs1 [Compound 95] | C (EC1.5>25 μM) | B (Fold Activation<350%) | C (EC1.5>25 μM) | B (Fold Activation<350%)
O=C(Nc1cccnc1)c1cc(N2CCOCC2)nn2cc(-c3ccccc3F)nc12 [Compound 40] | C (EC1.5>25 μM) | B (Fold Activation<350%) | C (EC1.5>25 μM) | B (Fold Activation<350%)
O=C(Nc1cnccn1)c1ccnc2cc(-c3ccccc3C(F)(F)F)nn12 [Compound 99] | C (EC1.5>25 μM) | B (Fold Activation<350%) | C (EC1.5>25 μM) | B (Fold Activation<350%)
O=C(Nc1nccs1)c1ccnn2cc(-c3cccc(C(F)(F)F)c3)nc12 [Compound 17] | C (EC1.5>25 μM) | B (Fold Activation<350%) | C (EC1.5>25 μM) | B (Fold Activation<350%)
